Measurements taken from PubChem BioAssay AID248 (DTP/NCI, 2004).
Inconclusive results and toxic doses are left out. Cut-off read from the data, not from the text of the source: active = T/C of 150% or more; inactive = T/C below 125%.

Test system: L1210 leukemia ip in BDF1 mice, survival T/C
Experiment: NCI In Vivo Anticancer Drug Screen. Data for tumor model L1210 Leukemia (intraperitoneal) in B6D2F1 (BDF1) mice
Settings: endpoint: mean survival time, higher = longer survival
Outline: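 Mice bearing the transplanted tumor received compound or vehicle. Survival of the treated group was divided by that of the vehicle-treated control group to give the ratio.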

[1] = dose: 100.0 mg/kg/injection, schedule: Q01DX009 (ip), vehicle: Klucel (hydroxypropylcellulose) (HPC)
[2] = dose: 100.0 mg/kg/injection, schedule: Q04DX003 (ip), vehicle: Klucel (hydroxypropylcellulose) (HPC)
[3] = dose: 200.0 mg/kg/injection, schedule: Q01DX009 (ip), vehicle: Klucel (hydroxypropylcellulose) (HPC)
[4] = dose: 200.0 mg/kg/injection, schedule: Q04DX003 (ip), vehicle: Klucel (hydroxypropylcellulose) (HPC)
[5] = dose: 400.0 mg/kg/injection, schedule: Q04DX003 (ip), vehicle: Klucel (hydroxypropylcellulose) (HPC)
[6] = dose: 100.0 mg/kg/injection, schedule: Q01DX001 (ip), vehicle: other
[7] = dose: 200.0 mg/kg/injection, schedule: Q01DX001 (ip), vehicle: other
[8] = dose: 400.0 mg/kg/injection, schedule: Q01DX001 (ip), vehicle: other
[9] = dose: 100.0 mg/kg/injection, schedule: Q01DX001 (ip), vehicle: carboxymethylcellulose (CMC)
[10] = dose: 200.0 mg/kg/injection, schedule: Q01DX001 (ip), vehicle: carboxymethylcellulose (CMC)
[11] = dose: 400.0 mg/kg/injection, schedule: Q01DX001 (ip), vehicle: carboxymethylcellulose (CMC)
[12] = dose: 25.0 mg/kg/injection, schedule: Q01DX009 (ip), vehicle: Klucel (hydroxypropylcellulose) (HPC)
[13] = dose: 50.0 mg/kg/injection, schedule: Q01DX009 (ip), vehicle: Klucel (hydroxypropylcellulose) (HPC)
[14] = dose: 100.0 mg/kg/injection, schedule: Q04DX003 (ip), vehicle: saline with Tween-80
[15] = dose: 200.0 mg/kg/injection, schedule: Q04DX003 (ip), vehicle: saline with Tween-80
[16] = dose: 400.0 mg/kg/injection, schedule: Q04DX003 (ip), vehicle: saline with Tween-80

Measured: T/C

CC(C)CCCC(C)C1CCC2C3CCC4CC(N5CCCC5)=CCC4(C)C3CCC12C (centres undefined)
inactive: dose: 75.0 mg/kg/injection, schedule: Q04DX003 (sc), vehicle: steriod suspending solution 96 % of control | dose: 150.0 mg/kg/injection, schedule: Q04DX003 (sc), vehicle: steriod suspending solution 96 % of control | dose: 300.0 mg/kg/injection, schedule: Q04DX003 (sc), vehicle: steriod suspending solution 102 % of control

COC(=O)c1ccccc1NC(=O)C(Cl)Cl
inactive: dose: 100.0 mg/kg/injection, schedule: Q01DX009 (ip), vehicle: other 106 % of control | dose: 200.0 mg/kg/injection, schedule: Q01DX009 (ip), vehicle: other 93 % of control | dose: 400.0 mg/kg/injection, schedule: Q01DX009 (ip), vehicle: other 98 % of control

NC1=C(c2ccccc2)C(=O)c2ccccc21
inactive: [1] 107 % of control | [2] 106 % of control | [3] 86 % of control | [4] 95 % of control | dose: 400.0 mg/kg/injection, schedule: Q01DX009 (ip), vehicle: Klucel (hydroxypropylcellulose) (HPC) 96 % of control | [5] 90 % of control

Cc1ccccc1N=C1C(=O)Nc2ccccc21
inactive: [6] 115 % of control | [7] 91 % of control | [8] 107 % of control

O=[N+]([O-])c1cc(O)ccc1Cl
inactive: dose: 50.0 mg/kg/injection, schedule: Q01DX009 (ip), vehicle: saline 93 % of control | dose: 100.0 mg/kg/injection, schedule: Q01DX009 (ip), vehicle: saline 102 % of control | dose: 100.0 mg/kg/injection, schedule: Q04DX003 (ip), vehicle: alcohol 104 % of control | dose: 200.0 mg/kg/injection, schedule: Q01DX009 (ip), vehicle: saline 87 % of control

Cc1ccc(CN(C)C)c(C(O)(c2ccccc2)c2ccccc2)c1
inactive: dose: 50.0 mg/kg/injection, schedule: Q01DX001 (ip), vehicle: carboxymethylcellulose (CMC) 96 % of control | [9] 107 % of control | [10] 100 % of control | [11] 96 % of control

Cc1cc(N(C)C)nc(N(C)C)n1
inactive: [6] 93 % of control | dose: 100.0 mg/kg/injection, schedule: Q04DX003 (ip), vehicle: other 103 % of control | [7] 101 % of control | dose: 200.0 mg/kg/injection, schedule: Q04DX003 (ip), vehicle: other 97 % of control | dose: 250.0 mg/kg/injection, schedule: Q01DX Z (ip), vehicle: methylcellulose (MC) 100 % of control | dose: 375.0 mg/kg/injection, schedule: Q01DX Z (ip), vehicle: methylcellulose (MC) 94 % of control | [8] 91 % of control | dose: 400.0 mg/kg/injection, schedule: Q04DX003 (ip), vehicle: other 102 % of control | dose: 500.0 mg/kg/injection, schedule: Q01DX Z (ip), vehicle: methylcellulose (MC) 96 % of control

CNS(=O)(=O)c1ccccc1CC(O)(c1ccccc1)c1ccccc1
inactive: dose: 100.0 mg/kg/injection, schedule: Q01DX001 (ip), vehicle: steriod suspending solution 88 % of control | dose: 200.0 mg/kg/injection, schedule: Q01DX001 (ip), vehicle: steriod suspending solution 87 % of control

NC(=O)N=Nc1ccccc1
inactive: [6] 105 % of control | [7] 91 % of control | [8] 98 % of control

O=C(NCCCN1CCOCC1)C(Oc1ccccc1)Oc1ccccc1
inactive: dose: 6.25 mg/kg/injection, schedule: Q01DX009 (ip), vehicle: Klucel (hydroxypropylcellulose) (HPC) 91 % of control | dose: 12.5 mg/kg/injection, schedule: Q01DX009 (ip), vehicle: Klucel (hydroxypropylcellulose) (HPC) 98 % of control | [12] 100 % of control | [13] 89 % of control

Cc1cc(C)cc(OC(=S)N(C)C)c1
inactive: dose: 100.0 mg/kg/injection, schedule: Q01DX001 (ip), vehicle: Klucel (hydroxypropylcellulose) (HPC) 93 % of control | dose: 200.0 mg/kg/injection, schedule: Q01DX001 (ip), vehicle: Klucel (hydroxypropylcellulose) (HPC) 98 % of control | dose: 400.0 mg/kg/injection, schedule: Q01DX001 (ip), vehicle: Klucel (hydroxypropylcellulose) (HPC) 95 % of control

c1ccc(-c2nc(-c3ccccc3)c(-c3ccccc3)nc2-c2ccccc2)cc1
inactive: dose: 100.0 mg/kg/injection, schedule: Q01DX001 (ip), vehicle: gum acacia 89 % of control | dose: 200.0 mg/kg/injection, schedule: Q01DX001 (ip), vehicle: gum acacia 91 % of control | dose: 400.0 mg/kg/injection, schedule: Q01DX001 (ip), vehicle: gum acacia 86 % of control

O=C(Nc1ccc(CN2CCOCC2)cc1)c1ccc(C(=O)Nc2ccc(CN3CCOCC3)cc2)cc1
inactive: dose: 37.5 mg/kg/injection, schedule: Q01DX Z (ip), vehicle: water 86 % of control | dose: 75.0 mg/kg/injection, schedule: Q01DX Z (ip), vehicle: water 91 % of control

CCCN(CCC)C(=O)c1cccnc1
inactive: [14] 93 % of control | [15] 96 % of control | [16] 94 % of control

O=C(c1ccccc1)C(Cl)c1ccccc1 (centres undefined)
inactive: [12] 105 % of control | [13] 111 % of control | [1] 107 % of control

O=C(NCCCl)Nc1ccc(Cl)c(Cl)c1
inactive: [9] 101 % of control | [1] 94 % of control | [10] 95 % of control | [3] 98 % of control | [11] 106 % of control

O=C(NCc1ccccc1)Nc1ccccc1
inactive: [2] 96 % of control | [4] 100 % of control | [5] 96 % of control

O=C(c1ccccc1)c1cccc2ccccc12
inactive: dose: 50.0 mg/kg/injection, schedule: Q04DX002 (ip), vehicle: Klucel (hydroxypropylcellulose) (HPC) 109 % of control | dose: 100.0 mg/kg/injection, schedule: Q04DX002 (ip), vehicle: Klucel (hydroxypropylcellulose) (HPC) 105 % of control | dose: 200.0 mg/kg/injection, schedule: Q04DX002 (ip), vehicle: Klucel (hydroxypropylcellulose) (HPC) 105 % of control | dose: 400.0 mg/kg/injection, schedule: Q04DX002 (ip), vehicle: Klucel (hydroxypropylcellulose) (HPC) 109 % of control

COc1ccc2c(c1)CCC(C)(C#N)C2=O (centres undefined)
inactive: dose: 100.0 mg/kg/injection, schedule: Q01DX009 (ip), vehicle: saline sonified 91 % of control | dose: 200.0 mg/kg/injection, schedule: Q01DX009 (ip), vehicle: saline sonified 96 % of control | dose: 400.0 mg/kg/injection, schedule: Q01DX009 (ip), vehicle: saline sonified 90 % of control

CCC(O)(c1ccccc1)c1ccccc1
inactive: [14] 103 % of control | [15] 99 % of control | [16] 98 % of control

CC(=O)[O][Hg][CH2]C1(C)COC(C)([CH2][Hg][O]C(C)=O)CO1 (centres undefined)
inactive: dose: 10.0 mg/kg/injection, schedule: Q01DX001 (ip), vehicle: carboxymethylcellulose (CMC) 108 % of control | dose: 20.0 mg/kg/injection, schedule: Q01DX001 (ip), vehicle: carboxymethylcellulose (CMC) 97 % of control | dose: 80.0 mg/kg/injection, schedule: Q01DX001 (ip), vehicle: carboxymethylcellulose (CMC) 97 % of control

O=C1CC2CCCC1C2 (centres undefined)
inactive: dose: 100.0 mg/kg/injection, schedule: Q01DX001 (ip), vehicle: saline 98 % of control | dose: 200.0 mg/kg/injection, schedule: Q01DX001 (ip), vehicle: saline 109 % of control | dose: 400.0 mg/kg/injection, schedule: Q01DX001 (ip), vehicle: saline 112 % of control
